Measurements: US20050080054A1, “Treating androgen decline in aging male (ADAM)-associated conditions with SARMS” (priority 2002, published 2005)

Columns and labels:
Assay type in all cases: in vivo, rat
[1] = system: androgen-responsive tissues (prostate, seminal vesicles, levator ani muscle); assay: Dose response of androgenic and anabolic activities (Emax, ED50) compared to TP; conditions: for Emax (% of Intact Control): doses 0.1-1.0 mg/day; for Relative Afficacy / Relative Potency: relative to TP
Description: FIG. 6: Dose response Curves. Rats were left untreated, or treated with 0.1, 0.3, 0.5, 0.75 and 1.0 mg/day Compound VI, Compound VII or testosterone propionate (TP), and the weight of androgen-responsive tissues (prostate—FIG. 6A, semimal vesicles—FIG. 6B and levator ani muscle—FIG. 6C) was determined. The results are plotted as percentage of the intact control.
(§1) Compound VI and Compound VII were synthesized and characterized in the laboratory of Dr. Duane Miller at the University of Tennessee, Memphis, Tenn. Male Sprague-Dawley rats were purchased from Harlan Biosciences (Indianapolis, Ind.). The animals were maintained on a 12-h cycle of light and dark with food and water available ad libitum. All animal studies were reviewed and approved by the Animal Care and Use Committee of The Ohio State University, and conformed to the Principles of Laboratory Animal Care (NIH publication #85-23, revised 1985). Immature male Sprague-Dawley rats weighing 187 to 214 g were randomly distributed into 9 groups of 5 animals. One day before the initiation of drug treatment, groups 4 through 6 and groups 7 through 9 received unilateral or bilateral orchidectomy, respectively, via a midline scrotal incision. […] All drugs given to animals were freshly prepared as solutions in polyethylene glycol 300 (PEG 300). Groups 4 and 7 received treatment with vehicle alone (i.e., PEG 300). Animals in groups 3, 6, and 9 received testosterone propionate (TP, 0.5 mg/day) via implantation of subdermal osmotic pumps (Model 2002, Durect Corporation, Palo Alto, Calif.). Animals in groups 2, 5, and 8 received Compound VI or Compound VII (0.5 mg/day) via implantation of subdermal osmotic pumps. After 14 days of drug treatment, rats were weighed, anesthetized, and sacrificed. Blood samples were collected by venipuncture of the abdominal aorta. Plasma samples were analyzed for testosterone, FSH, LH and osteocalcin. Testosterone concentrations were measured by AniLytics Inc. (Gaithersburg, Md.). FSH and LH levels were measured by the National Hormone and Peptide Program (Dr. A F Parlow, UCLA, CA). Plasma osteocalcin levels were determined using a commercially available rat osteocalcin EIA kit from Biomedical Technologies Inc. (Stoughton, Mass.). The ventral prostates, seminal vesicles, and levator ani muscle were removed and weighed. Osmotic pumps were also removed from animals to check for correct pump operation. The weights of all organs were normalized to body weight, and analyzed for any statistically significant differences between groups using single-factor ANOVA with the alpha value set a priori at p<0.05. The weights of prostates and seminal vesicles were used as indices for evaluation of androgenic activity, and the levator ani muscle weight was used to evaluate the anabolic activity. Statistical analyses of parameters from complete blood count or serum chemical profiling, wherever applicable, were performed by single-factor ANOVA with the alpha value set a priori at p<0.05.

[2] = system: female rats after ovariectomy; assay: Bone mineral content (DEXA) in female rats after ovariectomy
Description: One hundred ten female rats were assigned to one of eleven treatment groups. Groups 1-8 were ovariectomized on day one of the study. Groups 9-11 were intact animals. Groups 1-6 received Compound VI by daily subcutaneous injection at doses of 0.1, 0.3, 0.5, 0.75, 1.0, and 3 mg/day, respectively. Groups 7 and 11 received dihydrotestosterone (DHT) at a dose of 1 mg/day. Groups 8 and 9 were ovariectomized and intact control groups, respectively. Group 10 received Compound VI at a dose of 1.0 mg/day. All animals were treated for 120 days. Bone mineral content (BMC) was determined using dual energy x-ray absorptiometry (DEXA) on days 1, 30, 60, 90, and 120.

[3] = system: androgen-responsive tissues (prostate, seminal vesicles, levator ani muscle); assay: Androgenic and anabolic activity: weight of androgen-responsive tissues in intact, hemi-orchidectomized and castrated rats; conditions: 0.5 mg/day, 14 days, n = 5
Description: FIG. 3: Androgenic and Anabolic activity of Compound VI and Compound VII in rats. Male rats with normal testicular function (no surgical manipulation) were left untreated (Intact), treated with compound VI (0.5 mg/day), compound VII (0.5 mg/day) or testosterone proprionate (TP, 0.5 mg/day), and the weight of androgen-responsive tissues (prostate—FIG. 3A, semimal vesicles—FIG. 3B, and levator ani muscle—FIG. 3C) was determined.
(§2) FIG. 4: Androgenic and Anabolic activity of Compound VI and Compound VII in rats. Male rats received unilateral orchidectomy (Hemi-orchidectomized) and were left untreated (Intact), treated with vehicle alone (PEG 300), Compound VI (0.5 mg/day), Compound VII (0.5 mg/day), or testosterone proprionate (TP, 0.5 mg/day), and the weight of androgen-responsive tissues (prostate—FIG. 4A, semimal vesicles—FIG. 4B, and levator ani muscle—FIG. 4C) was determined.
as §2, with “5:” for “4:”, “bilateral” for “unilateral”, “(Castrated)” for “(Hemi-orchidectomized)”, “5A,” for “4A,”, “5B,” for “4B,”, “5C)” for “4C)”
as §1

[4] = Plasma LH levels in male rats of varying hormonal status; conditions: 0.5 mg/day; for Plasma LH levels: 14 days, n = 5
Excerpt: as §1

[5] = Plasma FSH levels in male rats of varying hormonal status; conditions: 0.5 mg/day; for Plasma FSH levels: 14 days, n = 5
Excerpt: as §1

[6] = Plasma osteocalcin levels in male rats of varying hormonal status; conditions: 0.5 mg/day; for Plasma osteocalcin levels: 14 days, n = 5
Excerpt: as §1

[7] = system: myosin heavy chain (MHC) IIb mRNA; assay: Myosin heavy chain (MHC) IIb mRNA expression in masseter muscle by RT-PCR; conditions: masseter muscle of intact female rats; untreated control = 100%
Excerpt: MHC is the predominant protein in skeletal muscle encoded by a multigene family expressed in a tissue-specific and developmentally regulated manner [Adams et al 1999]. In steady state, mRNA expression usually parallels the pattern of MHC protein expression. Because transcription of MHC mRNA occurs in advance of MHC protein translation, and the increased sensitivity of RT-PCR compared to western blotting, rapid changes in mRNA expression can be detected and used to analyze the subtle dynamic effects of muscle anabolism [Wright et al 1997].
The masseter muscle dissected from untreated intact female rats was set as the control level (representing 100%) of MHC IIb expression (FIG. 7A). Intact female rats treated with androgens were evaluated against the untreated controls for the effect of treatment on MHC IIb from masseter.

[8] = Plasma testosterone levels in male rats of varying hormonal status; conditions: 0.5 mg/day; for Plasma testosterone levels: osmotic pump, 14 days, n = 5
Excerpt: as §1

[9] = TP statement for castrated male rats

## CC(=O)Nc1ccc(OC[C@](C)(O)C(=O)Nc2ccc([N+](=O)[O-])c(C(F)(F)F)c2)cc1 [GTx-017]
[1]; Anabolic, Levator Ani Muscle
  ED50: 0.14 ± 0.01 mg/day
  Emax (% of Intact Control): 101.0 ± 1.0 % of Intact Control
  Relative Afficacy: 0.97
  Relative Potency: 1.07
[1]; Androgenic, Prostate
  ED50: 0.43 ± 0.01 mg/day
  Emax (% of Intact Control): 35.2 ± 0.4 % of Intact Control
  Relative Afficacy: 0.29
  Relative Potency: 0.30
[1]; Androgenic, Seminal Vesicle
  ED50: 0.55 ± 0.02 mg/day
  Emax (% of Intact Control): 28.5 ± 0.8 % of Intact Control
  Relative Afficacy: 0.40
  Relative Potency: 0.22

## C[C@](O)(COc1ccc(F)cc1)C(=O)Nc1ccc([N+](=O)[O-])c(C(F)(F)F)c1 [GTx-014]
[1]; Anabolic, Levator Ani Muscle
  ED50: 0.44 ± 0.01 mg/day
  Emax (% of Intact Control): 74.9 ± 0.4 % of Intact Control
  Relative Afficacy: 0.72
  Relative Potency: 0.34
[1]; Androgenic, Prostate
  ED50: 0.42 ± 0.04 mg/day
  Emax (% of Intact Control): 14.5 ± 0.7 % of Intact Control
  Relative Afficacy: 0.12
  Relative Potency: 0.31
[1]; Androgenic, Seminal Vesicle
  ED50: 0.38 ± 0.26 mg/day
  Emax (% of Intact Control): 12.7 ± 3.1 % of Intact Control
  Relative Afficacy: 0.18
  Relative Potency: 0.32

## C[C@]12CCC(=O)C[C@@H]1CC[C@@H]1[C@@H]2CC[C@]2(C)[C@@H](O)CC[C@@H]12 [DHT, dihydrotestosterone, reference compound]
[2]; ovariectomized female rat bone model
  potency comparison Compound VI versus DHT: less potent than Compound VI
[2]; ovariectomized female rats, 1.0 mg/day, treated for 120 days (group 5; DHT 1 mg/day)
  increase in BMC: 15%

## CCC(=O)O[C@H]1CC[C@H]2[C@@H]3CCC4=CC(=O)CC[C@]4(C)[C@H]3CC[C@]12C [TP, testosterone propionate, reference compound]
[3]; castrated rats
  Levator Ani weight: 87.27 ± 10.25 % of intact control
  Prostate weight: 76.78 ± 10.43 % of intact control
  Seminal Vesicle weight: 63.48 ± 17.05 % of intact control
[3]; hemi-orchidectomized rats
  Levator Ani weight: 98.63 ± 10.47 % of intact control
  Prostate weight: 98.57 ± 7.98 % of intact control
  Seminal Vesicle weight: 114.19 ± 23.81 % of intact control
[3]; intact rats
  Levator Ani weight: 95.61 ± 9.34 % of intact control
  Prostate weight: 97.45 ± 10.82 % of intact control
  Seminal Vesicle weight: 103.95 ± 13.23 % of intact control
[4]; [9]
  effect on plasma LH levels: significant decrease
[4]; castrated male rats
  Plasma LH levels: 6.702 ± 1.513 ng/mL
[4]; hemi-orchidectomized male rats
  Plasma LH levels: 0.124 ± 0.092 ng/mL
[4]; intact male rats
  Plasma LH levels: 0.168 ± 0.173 ng/mL
[5]; [9]
  effect on plasma FSH levels: significant decrease
[5]; castrated male rats
  Plasma FSH levels: 58.0 ± 6.9 ng/mL
[5]; hemi-orchidectomized male rats
  Plasma FSH levels: 17.2 ± 3.3 ng/mL
[5]; intact male rats
  Plasma FSH levels: 11.4 ± 1.7 ng/mL
[6]; Compound VI statement for hemi-orchidectomized and castrated animals
  effect on plasma osteocalcin levels: no effect
[6]; castrated male rats
  Plasma osteocalcin levels: 65.976 ± 11.213 ng/mL
[6]; hemi-orchidectomized male rats
  Plasma osteocalcin levels: 77.236 ± 24.418 ng/mL
[6]; intact male rats
  Plasma osteocalcin levels: 74.952 ± 15.399 ng/mL
[7]
  MHC type IIb transcription, of untreated control: 133%
[8]; castrated male rats
  plasma testosterone levels versus controls: higher plasma testosterone levels
  Plasma testosterone levels: 0.258 ± 0.103 ng/mL
[8]; hemi-orchidectomized male rats
  Plasma testosterone levels: 2.366 ± 1.232 ng/mL
[8]; intact male rats
  Plasma testosterone levels: 1.482 ± 0.416 ng/mL
[1]; Anabolic, Levator Ani Muscle
  ED50: 0.15 ± 0.03 mg/day
  Emax (% of Intact Control): 104.2 ± 10.1 % of Intact Control
  Relative Afficacy: 1.00
  Relative Potency: 1.00
[1]; Androgenic, Prostate
  ED50: 0.13 ± 0.03 mg/day
  Emax (% of Intact Control): 120.6 ± 13.4 % of Intact Control
  Relative Afficacy: 1.00
  Relative Potency: 1.00
[1]; Androgenic, Seminal Vesicle
  ED50: 0.12 ± 0.02 mg/day
  Emax (% of Intact Control): 70.0 ± 18.8 % of Intact Control
  Relative Afficacy: 1.00
  Relative Potency: 1.00
